Reference: patent publication US12617794B2, “GABAA positive allosteric modulator compounds, methods of making, and uses thereof” (NEUROCYCLE THERAPEUTICS, INC., priority 2019, dated 2026)
Where two headings read alike, the source gives them in different places.

Tests used:
[1] = Hygroscopicity by dynamic vapor sorption (DVS), Example 4; assay type: physicochemical
Experimental: The hygroscopicity of Phosphate Polymorph Form A was measured by Dynamic vapor sorption (DVS). […] After DVS, XRPD confirmed that the crystalline form was retained (FIG. 19).

[2] = Pharmacokinetics in rats (Example 17); assay type: in vivo, Sprague-dawley rats; conditions: rat, PO 2 mg/kg, mean
Experimental: To evaluate the pharmacokinetics (PK) of Phosphate Polymorphic Form A, suspensions or solutions were dosed by either oral gavage (0.5% methyl cellulose) or IV (60% PEG400/40% saline) in normal, healthy, male Sprague-dawley rats with serial blood collection focused on the first 48 hours of exposure. Rats were dosed with vehicle or test compounds at 1 mg/kg (IV) or 2 mg/kg (PO). Approximately 0.2 mL blood was collected at each time point. All blood samples were collected jugular vein puncture. All blood samples were transferred into plastic microcentrifuge tubes containing 5 μL of EDTA-K2 as anti-coagulant or pre-chilled commercial EDTA-K2 tubes and placed on wet ice until centrifugation. Harvested blood samples were centrifuged within 30 min of collection at 7,000 rpm for 10 minutes. The extracts were analyzed for compound concentration by LC/MS/MS. Data were analyzed with Phoenix WinNonlin 6.3 using the IV-Noncompartmental model 201 (IV bolus input) and PO-Noncompartmental model 200 (extravascular input) methods.

[3] = Approximate solubility study of TPA023B phosphate (Example 25); assay type: physicochemical; conditions: RT, listed as TPA023B phosphate
Experimental: The total amount of solvent was recorded to calculate the approximate solubility in these solvents.

[4] = Preliminary (estimated) solubility study of TPA023B Phosphate Form A (30.3, Example 34); assay type: physicochemical; conditions: estimated by visual observation
Experimental: Then the mixture was agitated in a shaker block for at least 30 mins. Additional solvent was added in a stepwise manner until all solids were dissolved. The dissolution was checked by visual observation and the amount of solvent required to dissolve all the solids was recorded.

[5] = DVS of TPA023B Phosphate Form A (Example 33); assay type: physicochemical; conditions: for hygroscopicity: DVS; for crystal form after DVS test: XRPD
[6] = Mechanical treatment (grinding) of Phosphate Form A; assay type: physicochemical; conditions: for crystal form after grinding (XRPD): ground manually with mortar and pestle, 3-5 minutes
Source text: The crystal form was unchanged after grinding.

[7] = Slurry of Phosphate Form A in acetone with different water content (Example 68); assay type: physicochemical; conditions: for Result (solid form after slurry): slurry in acetone at RT
Source text: The suspension was stirred at RT for hours. The solid was isolated and analyzed. […] Phosphate dissociated when water content is >, 4% wt. in acetone at RT.

[8] = Fast cooling crystallization (Example 63); assay type: physicochemical; conditions: fast cooling to 4° C. or −20° C.
Experimental: The suspensions were filtered to obtain saturated solution which was cooled to final temperature (4° C. or −20° C.) immediately and characterized.
The suspensions were filtered to obtain saturated solutions which were immediately cooled to final temperature (4° C. or −20° C.). Any solids obtained were characterized.

crystalline form after DVS (XRPD) [1]: retained
reversible mass increase (DVS) [1]: about 1.08%
AUCExtra (%) [2]: 6.25%
Solubility (mg/mL) ([3]; DMF): relatively high solubility
Solubility (mg/mL) ([3]; DMSO): relatively high solubility
solubility ([4]; 1,4-Dioxane, organic solvent or mixture, thermodynamic from solid, 1,4-Dioxane, read-out: Solubility): 25000 µg/mL
solubility ([4]; 2-Me THF, organic solvent or mixture, thermodynamic from solid, 2-Me THF, read-out: Solubility): 20000 µg/mL
solubility ([4]; ACN, organic solvent or mixture, thermodynamic from solid, ACN, read-out: Solubility): < 2000 µg/mL
solubility ([4]; DCM, organic solvent or mixture, thermodynamic from solid, DCM, read-out: Solubility): 2000 µg/mL
solubility ([4]; DMF, organic solvent or mixture, thermodynamic from solid, DMF, read-out: Solubility): 96000 µg/mL
solubility ([4]; DMSO, organic solvent or mixture, thermodynamic from solid, DMSO, read-out: Solubility): 93000 µg/mL
solubility ([4]; EA, organic solvent or mixture, thermodynamic from solid, EA, read-out: Solubility): < 2000 µg/mL
solubility ([4]; EA, listed as TPA023B Phosphate Form A): <2000 µg/mL
solubility ([4]; Heptane, listed as TPA023B Phosphate Form A): <1000 µg/mL
solubility ([4]; IPA, organic solvent or mixture, thermodynamic from solid, IPA, read-out: Solubility): 2500 µg/mL
solubility ([4]; MTBE, organic solvent or mixture, thermodynamic from solid, MTBE, read-out: Solubility): < 2000 µg/mL
solubility ([4]; MTBE, listed as TPA023B Phosphate Form A): <1500 µg/mL
solubility ([4]; THF, organic solvent or mixture, thermodynamic from solid, THF, read-out: Solubility): 28000 µg/mL
solubility ([4]; Water, listed as TPA023B Phosphate Form A): <2000 µg/mL
solubility ([4]; acetone, organic solvent or mixture, thermodynamic from solid, Acetone, read-out: Solubility): 7000 µg/mL
solubility ([4]; ethanol, organic solvent or mixture, thermodynamic from solid, Ethanol, read-out: Solubility): 3000 µg/mL
solubility ([4]; heptane, organic solvent or mixture, thermodynamic from solid, Heptane, read-out: Solubility): < 2000 µg/mL
solubility ([4]; methanol, organic solvent or mixture, thermodynamic from solid, Methanol, read-out: Solubility): 9500 µg/mL
solubility ([4]; water, thermodynamic from solid, Water, read-out: Solubility): < 2000 µg/mL
hygroscopicity ([5]; listed as Phosphate Form A): slightly hygroscopic
hygroscopicity ([5]; listed as phosphate Form A): slight hygroscopicity
crystal form after DVS test ([5]; listed as Phosphate Form A): remained unchanged
crystal form after DVS test ([5]; listed as phosphate Form A): no change
water absorbed (DVS) ([5]; from 0 to 80% RH): 0.68%
crystallinity after grinding [6]: decreased
crystal form after grinding (XRPD) ([6]; listed as Phosphate Form A): unchanged
crystal form after grinding (XRPD) ([6]; listed as TPA023B Phosphate Form A): remained unchanged
crystal form after grinding (XRPD) ([6]; listed as phosphate Form A): no change
Result (solid form after slurry) ([7]; water content 3 wt. %): Phosphate Form A
Result (solid form after slurry) ([7]; water content 3.5 wt. %): Phosphate Form A
Result (solid form after slurry) ([7]; water content 4 wt. %): Phosphate Form A + Free Base Form E
Result (solid form after slurry) ([7]; water content 4.5 wt. %): Phosphate Form A + Free Base Form E
Result (solid form after slurry) ([7]; water content 5 wt. %): Phosphate Form A + Free Base Form E
Result (solid form after slurry) ([7]; water content 5.5 wt. %): Phosphate Form A + Free Base Form E
Result (solid form after slurry) ([7]; water content 6 wt. %): Phosphate Form A + Free Base Form E
solid form after slurry in acetone ([7]; water content <3.5% wt., RT): remained unchanged
solid form after slurry in acetone ([7]; water content >, 4% wt. in acetone at RT): dissociated
Result (solid form obtained) ([8]; solvent 1,4-dioxane): No solid
Result (solid form obtained) ([8]; solvent 1-methyl-2-pyrrolidone): No solid
Result (solid form obtained) ([8]; solvent 2-butanone): Phosphate Form A
Result (solid form obtained) ([8]; solvent 2-methyl tetrahydrofuran): No solid
Result (solid form obtained) ([8]; solvent 4-methyl-2-pentanone): Phosphate Form A
Result (solid form obtained) ([8]; solvent ACN): Phosphate Form A
Result (solid form obtained) ([8]; solvent Acetone): Phosphate Form A
Result (solid form obtained) ([8]; solvent Anisole): No solid
Result (solid form obtained) ([8]; solvent BAC): Phosphate Form A
Result (solid form obtained) ([8]; solvent Butanol): Freebase form A
Result (solid form obtained) ([8]; solvent DMF): No solid
Result (solid form obtained) ([8]; solvent DMSO): No solid
Result (solid form obtained) ([8]; solvent EA): Phosphate Form A
Result (solid form obtained) ([8]; solvent Ethyl formate): Phosphate Form A
Result (solid form obtained) ([8]; solvent Isoamyl alcohol): New Free Base pattern K
Result (solid form obtained) ([8]; solvent MAC): Phosphate Form A
Result (solid form obtained) ([8]; solvent MEK): Phosphate Form A
Result (solid form obtained) ([8]; solvent Propyl acetate): Phosphate Form A
Result (solid form obtained) ([8]; solvent THF): No solid
Structure (SMILES): CC(C)(O)c1cnn2c(-c3ccc(F)c(-c4c(F)cccc4C#N)c3)cnc2n1 [Phosphate Polymorphic Form A, 2′,6-difluoro-5′-[3-(1-hydroxy-1-methylethyl)-imidazo[1,2-b][1,2,4]triazin-7-yl]biphenyl-2-carbonitrile]
